Row | SMILES | melting point [°C]
1 | CCN1c2ncc(Br)cc2C(=O)N(C)c2ccc(F)nc21 | 154 to 156
2 | CS(=O)(=O)c1ccc(NCCc2[nH]c3c(cnc4cc(Cl)ccc43)c2C=NNc2ccccc2)cc1 | 185 to 186
3 | COC(=O)c1ccc2c(c1)NC(=O)C(C)O2 (stereo not given) | 156 to 159
4 | CN(C)c1ccc(S(=O)c2ccccc2)cc1[N+](=O)[O-] (stereo not given) | 125 to 126
5 | CCOC(=O)N1CCC(Nc2cc(OC)ccc2N)CC1 | 97 to 99
6 | CC1CN(c2nc(N)nc(-c3cc(Cl)ccc3Cl)n2)CC(C)O1 (stereo not given) | 192 to 195
7 | NC1C(=O)Nc2ccccc2SC1Cc1ccccc1 (stereo not given) | 223 to 224
8 | COc1cc(O)c2c(=O)c(OC)c(-c3ccc(N)cc3)oc2c1 | 221
9 | COC1=C(OC)C(=O)C2=C(CCC(CCOc3ccc(NC(C)=O)cc3)CC2)C1=O | 151 to 154
10 | Cn1cc(C(N)=O)c(Nc2ccc(C#N)cc2F)cc1=O | 261 to 266
11 | CC(C)(O)CC(=O)N[C@H]1CC[C@H](CCN2CCN(c3nccc4c3OCC4)CC2)CC1 | 139
12 | CC(C)(C)[Si](C)(C)CCCSCCNC(=O)n1cc(F)c(=O)[nH]c1=O | 123 to 124
13 | CN=C(NC#N)NCCSCc1ccsn1 | 63 to 64
14 | COc1ccc(CCCCCCCCO)cc1 | 47 to 49
15 | CC(=O)N1CCCC2=C1CCc1cc(Cl)ccc12 | 106 to 108
16 | CN1c2ccccc2[C@H]2Cc3ccccc3[C@H]21 (relative stereo) | 76 to 77
17 | COc1cncc(OC)c1CCCOc1cccnc1Oc1cccc(Br)c1 | 106 to 154
18 | COc1cccc(Cc2ccc(N)c(C#N)c2)c1 | 81 to 82
19 | NC(=O)c1cnn2c1N(C(=S)NC(=O)c1ccccc1)CC=C2c1cccc(C(F)(F)F)c1 | 210 to 212
20 | CC1(c2cccnc2F)OC(=S)N(Nc2ccccc2)C1=O (stereo not given) | 130 to 135
21 | Cc1cc(F)ccc1-c1nc(NCCNC(=O)Nc2cccc(F)c2)nc2c1ccc(=O)n2-c1c(F)cccc1F | 131 to 144
22 | O=C(Nc1nncs1)c1sc(Nc2ccccc2)c2c1CCc1cnoc1-2 | 227 to 229
23 | CCCCOc1cc(/C=C(\OCC)C(=O)O)ccc1OCCc1ccc(OS(=O)(=O)CCCC)cc1OC | 90
24 | COc1ncc(C2OC(CO)C(O)C2O)c(OC)n1 (stereo not given) | 138 to 139
25 | Cc1noc(NS(=O)(=O)c2c(C)sc3ccccc23)c1Br | 131 to 133

Row | SMILES | melting point [°C]
26 | Cc1c(C(=O)CC(C)(C)C)c2ccccc2n1CCCNS(C)(=O)=O | 139 to 142
27 | COc1ccc2c(c1)C(=NO)c1c-2cnc2ccccc12 | 270 to 271
28 | COC(=O)c1cc(NC(=N)N)c(NC(C)=O)cc1O | 233 to 234
29 | CCOc1cc2c(cc1S(N)(=O)=O)C(CNC(=O)N1CC(C)=C(CC)C1=O)CCO2 (stereo not given) | 192
30 | Cc1ncnc(Cl)c1C | 45 to 47
31 | COC(=O)COc1cccc(CCN(C)CCCC(C#N)(c2ccc(OC)c(OC)c2)C(C)C)c1 (stereo not given) | 96 to 100
32 | Cc1ccc(C(=O)Nc2ccc(-n3nc(C(F)(F)F)cc3C(F)(F)F)cc2)cc1 | 225 to 226
33 | CN(C)c1ncnc2c(O)cccc12 | 104 to 105
34 | CC(=O)Nc1scc(C)c1C(=O)c1ccccc1Cl | 148 to 149
35 | CCCCOCCOc1ccc(-c2ccc(N3CC(C)C(C)C3)c(C=C(C)C(=O)OCC)c2)cc1 (stereo not given) | 67 to 69
36 | COc1cc(F)ccc1-c1ccc(S(=O)(=O)N2c3ccccc3CC2C(=O)NCCOc2ccc(C(=O)O)c(F)c2)cc1 (stereo not given) | 88 to 95
37 | O=C1[C@@H]2CCCN2C(=O)N1c1cc(Cl)cc(Cl)c1 | 169
38 | CC(C)(C)NC(=O)C1CCCN1C(=O)C(O)C(Cc1ccccc1)NC(=O)C(CC(N)=O)NC(=O)COc1cccc(NC(=O)OCc2ccccc2)c1 (stereo not given) | 107 to 117
39 | CN(C)c1ccc2c(c1)C(=O)CC(c1cccc(OCc3ccccc3)c1)=N2 | 307 to 308
40 | CC(C)c1cccc(C(C)C)c1NC(=O)NCC1(c2ccc3ccccc3c2)CCCC1 | 152 to 154
41 | CN1CCC(Oc2ccc3ccc(N)nc3n2)CC1 | 174
42 | O=C(OCc1ccccc1Cl)c1ncn2c1[C@@H]1CCCN1C(=O)c1c(Cl)cccc1-2 | 192 to 193
43 | C[Si](C)(c1ccccc1)C1CC(=O)c2c(nc3ccccc3c2N)C1 (stereo not given) | 178 to 180
44 | COc1cc(O)c2c(c1)[C@H]1CN(C)CC[C@@H]1CC2=O (relative stereo) | > 250
45 | COC1=C(OC)C(=O)C(CCC(=O)N2CCC[C@H]2C(=O)O)=C(C)C1=O | 131
46 | O=C(NCc1cc[nH]n1)c1ccnc(N2CCN(Cc3ccc(F)cc3)C2=O)c1 | 178 to 180
47 | CC1=C(Cc2ncc[nH]2)CCc2ccccc21 | 209 to 211
48 | CC(=O)N1CCC(N2C(=O)CN=C(c3ccccc3)c3ccccc32)CC1 | 208 to 209
49 | COC(=O)c1[nH]nc2c1C(C)Cc1cc(OC)ccc1-2 (stereo not given) | 163
50 | CC(=O)N[C@@H]1c2cc(C)ccc2OC(C)(C)[C@H]1O (relative stereo) | 188 to 190

Row | SMILES | melting point [°C]
51 | CCN(CC)C(=O)c1ccc(OC)cc1 | 40 to 42
52 | BrCc1cc2ccccc2s1 | 107 to 109
53 | COc1ccc(-c2ncn(C3CCCCO3)c2-c2ccc(OC)cc2)cc1 (stereo not given) | 127 to 128
54 | NNC(=O)c1cc2c(Oc3ccc(C(F)(F)F)cc3)cncc2s1 | 146 to 147
55 | Clc1cccc(-c2ccc(Cl)nn2)c1 | 155 to 157
56 | CCCCc1nc(Cc2ccc(-c3ccccc3C(=O)OC)cc2)c2ccccc2n1 | 76
57 | O=[N+]([O-])c1ccc(C2OCCO2)cc1 | 88 to 92
58 | O=C(Nc1ccc(OC(F)(F)F)cc1)c1cccc(Cl)c1[N+](=O)[O-] | 171 to 172
59 | Cc1cc(C)c(C[C@@H](C(=O)[C@H](Cc2c(C)cc(C)cc2C)N2C(=O)c3ccccc3C2=O)N2C(=O)c3ccccc3C2=O)c(C)c1 | 142 to 143
60 | CCc1oc2ccc([N+](=O)[O-])cc2c1C(=O)c1ccc(OC)cc1 | 130
61 | CCC12CCC3C4CCC(=O)C=C4CCC3C1CCC2OCCN(C)C (stereo not given) | 87 to 88
62 | N#CCc1c[nH]c2ccc(NC(=O)c3ccc[nH]3)cc12 | 216 to 218
63 | Nc1ccc2c(c1)N1CCCN=C1S2 | 197
64 | COC(=O)c1c(SC)nn(C2CCCC2)c1N | 88 to 89
65 | N#CC(C(=O)Nc1ccccc1)C(=O)c1nn(-c2ccccc2)c2c1Cc1ccccc1-2 (stereo not given) | 273 to 277
66 | CCCc1c(OCCCOc2ccc3c(c2CCC)OC(CCC(=O)OC)CC3=O)ccc(C(C)=O)c1O (stereo not given) | 101 to 102
67 | CC(=O)SCC(C(=O)NC(Cc1ccc(O)cc1)C(=O)O)C(F)(F)F (stereo not given) | 170 to 173
68 | CCCCCCCCCCc1ccc(C(=O)CCCCC(=O)O)cc1 | 84 to 85
69 | COC(=O)N1CCN(c2ccc(N3CC(CNC(C)=O)OC3=O)cc2F)CC1 (stereo not given) | 177 to 179
70 | O=C(Cl)C(=O)N1CCOC1=O | 57
71 | O=C1Nc2cc(Cl)ccc2C(=O)C1c1cccs1 (stereo not given) | 305 to 307
72 | COC(=O)C1=C(C)NC(C)=C(C(=O)OCCOC(=O)c2ccc(NC(C)=O)cc2)C1c1cccc([N+](=O)[O-])c1 (stereo not given) | 190 to 193
73 | CN(c1cccc2cc(C3=NCC(C)(C#N)S3)[nH]c12)S(=O)(=O)c1cccs1 (stereo not given) | 178 to 179
74 | Cc1c(-c2ccc(C(=O)c3ccc(-c4sc5ccccc5c4C)nc3)cn2)sc2ccccc12 | 120 to 121
75 | CCOC(=O)C1=C(C)N=C(SCc2ccc(OC)cc2)N(S(=O)(=O)c2ccccc2)C1c1cccc([N+](=O)[O-])c1 (stereo not given) | 86 to 88

Row | SMILES | melting point [°C]
76 | CC(CCCl)=C1SC(=S)N(CC(=O)O)C1=O | 205 to 207
77 | O=C(O)CSc1c(Cl)cc2c(-c3ccccc3F)noc2c1Cl | 165
78 | O=C1C(Cc2ccccc2C(F)F)c2ccccc2C12COc1cc3c(cc12)OCCO3 (stereo not given) | 191 to 193
79 | COc1ccc2c(=O)c(-c3ccccc3)c(SCc3cccnc3)oc2c1 | 152
80 | COc1ccc(CCC(=O)c2c(O)cc(OC)cc2OC)cc1 | 110
81 | CC(Cc1sc(Br)cc1Cl)NC(=O)c1cn(C)nc1C(F)F (stereo not given) | 157 to 158
82 | Cc1noc(NS(=O)(=O)c2ccccc2)c1-c1ccccc1 | 124 to 126
83 | O=C(NO)C1(NS(=O)(=O)c2ccc(OCc3ccc(Cl)cc3Cl)cc2)CC1c1ccccc1 (stereo not given) | 164 to 169
84 | Nc1c(C(=O)c2cccc(C(=O)O)c2)[nH]c2cc(Cl)ccc12 | 263 to 270
85 | CCOC(=O)C1=C(COCc2nnnn2CCNc2nc(N)n[nH]2)NC(C)=C(C(=O)OC)C1c1cccc(Cl)c1Cl (stereo not given) | 70
86 | CN(CCC#N)c1nc(Nc2cccc(NS(C)(=O)=O)c2)nc2[nH]cnc12 | 218 to 222
87 | CCOC(=O)C(C)(C)Oc1ccc(-c2ccc(CC(=O)Nc3cc(Cl)ccc3OC)cc2)cc1 | < 20
88 | COc1nc(C)cnc1NS(=O)(=O)c1cnccc1-c1ccc(CC(C)C)cc1 | 232 to 233
89 | Cc1[nH]c(C=O)c(C)c1C(=O)NCC1CCCCN1 (stereo not given) | 107 to 115
90 | CCSc1ccc(Oc2ccc(Cl)c(Cl)c2)nc1C#N | 64 to 66
91 | COc1cccc2c1CCN(C(=O)C(F)(F)F)CC2 | 74 to 76
92 | Fc1ccc(-c2nn3cc(C(F)(F)F)ccc3c2-c2ccnc(NC3CCCC3)n2)cc1 | 155 to 156
93 | Fc1ccc(Oc2ccc(-c3nc4ccccc4[nH]3)cc2)cc1 | 243 to 245
94 | CCOC(=O)c1cc2c(Cl)cccc2n1[C@H](C)CNC(=O)OC(C)(C)C | 115 to 119
95 | O=c1cc2c(nn1-c1ccc(Cl)cc1)-c1ccccc1S(=O)(=O)CC2 | > 310
96 | CS(=O)(=O)Nc1cc2occc(=O)c2cc1Oc1ccccc1N | 238 to 240
97 | CSC(=C[N+](=O)[O-])N(C)C | 60
98 | CNC(=O)NNC1=NS(=O)(=O)c2ccccc21 | 183
99 | Cn1ncc2c(c1=O)SCCNC2C(=O)c1ccccc1 (stereo not given) | 210
100 | COC(=O)c1cc(N)cc(CNC(=O)OC(C)(C)C)c1 | 57 to 65

Reference: a melting point compilation (Tetko et al.; mined from patent text by program, amines drawn as free bases though some values may be those of a salt)
